Data published in the NIST ThermoML archive (doi:10.1021/je0604232).

Experiment: molar heat capacity at constant pressure; xn = mol fraction of the nth substance listed
Conditions: 101 kPa, Liquid

CN(C)CCO [2-(N,N-dimethylamino)ethanol] + O
molar heat capacity at constant pressure [J/K/mol]
Conditions | x1 = 0.0997 | x1 = 0.1962 | x1 = 0.3003 | x1 = 0.3984 | x1 = 0.4983 | x1 = 0.6008 | x1 = 0.698 | x1 = 0.7981 | x1 = 0.8938 | x1 = 1
303.15 K | 103 | 118 | 132 | 144 | 156 | 168 | 179 | 191 | 202 | 213
308.15 K | 104 | 119 | 134 | 146 | 158 | 170 | 181 | 193 | 205 | 215
313.15 K | 105 | 121 | 136 | 149 | 161 | 173 | 185 | 196 | 208 | 217
318.15 K | 105 | 123 | 139 | 152 | 164 | 177 | 188 | 199 | 210 | 219
323.15 K | 107 | 125 | 141 | 155 | 168 | 180 | 191 | 203 | 213 | 221
328.15 K | 108 | 127 | 144 | 158 | 171 | 184 | 195 | 206 | 215 | 222
333.15 K | 109 | 129 | 147 | 161 | 175 | 187 | 199 | 209 | 217 | 223
338.15 K | 112 | 132 | 150 | 165 | 179 | 192 | 203 | 213 | 220 | 223
343.15 K | 114 | 136 | 155 | 170 | 184 | 196 | 208 | 218 | 223 | 223
348.15 K | 118 | 140 | 160 | 176 | 190 | 203 | 214 | 223 | 225 | 224
353.15 K | 123 | 146 | 166 | 184 | 198 | 210 | 221 | 229 | 228 | 226

NCCCO [3-amino-1-propanol] + O
molar heat capacity at constant pressure [J/K/mol]
Conditions | x1 = 0.0999 | x1 = 0.2001 | x1 = 0.3003 | x1 = 0.4015 | x1 = 0.4996 | x1 = 0.6006 | x1 = 0.7003 | x1 = 0.8003 | x1 = 0.8966 | x1 = 1
303.15 K | 94 | 108 | 120 | 131 | 143 | 155 | 168 | 180 | 193 | 204
308.15 K | 96 | 111 | 123 | 135 | 147 | 159 | 171 | 184 | 196 | 207
313.15 K | 97 | 112 | 124 | 136 | 148 | 160 | 172 | 185 | 197 | 208
318.15 K | 98 | 113 | 126 | 138 | 150 | 162 | 173 | 186 | 198 | 208
323.15 K | 99 | 115 | 128 | 140 | 152 | 163 | 175 | 187 | 199 | 209
328.15 K | 101 | 117 | 130 | 142 | 154 | 166 | 177 | 189 | 200 | 210
333.15 K | 103 | 119 | 132 | 145 | 157 | 169 | 179 | 191 | 202 | 211
338.15 K | 106 | 122 | 135 | 148 | 160 | 172 | 182 | 193 | 204 | 213
343.15 K | 110 | 126 | 139 | 151 | 163 | 175 | 185 | 196 | 206 | 214
348.15 K | 114 | 130 | 143 | 155 | 167 | 179 | 188 | 198 | 208 | 216
353.15 K | 119 | 135 | 147 | 160 | 172 | 183 | 192 | 201 | 210 | 217
